Test results: patent publication US7994291B2, “Human E3α ubiquitin ligase family” (Amgen Inc., priority 2000, dated 2011)
“Also recorded” adds a separate entry of the source.

Legend:
E3α = test: 125I-ubiquitin conjugation to endogenous muscle proteins in Fraction II of muscle extracts from YAH tumor-bearing rats, with E3α inhibitor; format: biochemical, rat; conditions: 10 mM inhibitor, 20 μg/ml bestatin, 37° C., 20 minutes, Fraction II of gastrocnemius muscle extract
Experimental: The rate of ubiquitin conjugation of the endogenous muscle proteins were carried out as described in Example 10 using the skeletal muscles from the YAH tumor-bearing rats. The frozen gastrocnemius muscles collected (via dissection at sacrifice) from 6 tumor-bearing rats were combined. The muscle extracts (20% weight/volume) were prepared by homogenizing the muscles in a buffer containing 50 mM Tris HCl (pH 8.00), 5 mM MgCl2, 2 mM DTT, protease inhibitor cocktail (Sigma P8340) and 10% glycerol. The homogenates were then centrifuged at 40,000 g for 1 hr and the resulting supernatants were used as crude muscle extracts.
For some assays, the crude muscle extracts were fractionated further by chromatography on DEAE-cellulose (Whatman, Clifton, N.J.) to remove endogenous ubiquitin as described by Soloman et al. (Proc. natl. Acad. Sci. U.S.A., 95: 12602-7, 1998). The bound material Fraction II, which contained most of the ubiquitin conjugating enzymes were eluted with 50 mM Tris, pH 8.0 containing 0.5M NaCl and 1 mM DTT. Both crude extracts and Fraction II were dialyzed prior to use for ubiquitination assay against buffer containing 20 mM Tris, pH 8.0, 2 mM DTT, 5 mM MgCl2, and 10% glycerol and stored at […] until use. Crude muscle extracts were used for ubiquitin conjugation to ^125I-α-lactalbumin. […]

muE3αII = test: Northern blot of muE3αII mRNA in cytokine-treated C2C12 myotubes; format: cell-based, mouse; conditions: 10 ng/ml cytokine for 3 days and 5 days, differentiated C2C12 myotubes vs untreated
Experimental: Treatment with the proinflammatory cytokines, TNFα and IL-6, caused the induction of […] in C2C12 myotube cultures. C2C12 myoblasts were cultured in 100-mm dishes in an atmosphere of 5% CO2 at 37° C. in DMEM supplemented with 10% FBS and L-glutamine to reach 100% confluence. Myoblast differentiation was induced with DMEM supplemented with 2% horse serum and L-glutamine for 96 hours. Differentiated myotubes were then treated with TNFα (10 ng/ml; R&D Systems cat no. 210-TA) or IL-6 (10 ng/ml; R&D Systems cat no. 206-IL) for 3 days and 5 days.
After the 3 or 5 day incubation, RNA from differentiated C2C12 cultures was isolated with Trizol Reagent and Northern blot analysis was carried out as described in Example 11. Isolated RNA from untreated C2C12 cultures were used as a control. The blots were hybridized with a ^32P-labeled cDNA probes specific for muE3αI (lower panels) and muE3αII (upper panels). The probes were generated as described in Example 12.

[1] = system: differentiated C2C12 cells; test: 125I-ubiquitin conjugation of cellular proteins in cytokine-treated differentiated C2C12 myotubes; format: cell-based, murine
Experimental: To further substantiate the enzymatic activity of huE3αI and huE3αII, ubiquitin conjugation to endogenous cellular proteins were measured in cultured muscle cell lines. Cultures of murine C2C12 or rat L6 myotube cells (ATCC accession nos. CRL-1772 and CRL-1458, respectively) were transfected with huE3αI or huE3αII full length cDNA under control of the CMV promoter using Lipofectamine 2000 Reagent (Gibco). Mock transfection with the pcDNA3.1 vector without a cDNA insert was performed as a control. Cell lysates were prepared as described above for the 293T cells and the resulting supernatants were used in ubiquitin conjugation reactions. For each reaction, 30 μg of C2C12or L6 myotube cell lysate was incubated with ^125I-ubiquitin (0.15 mg/ml, approximately ×10^7 cpm) in a total volume of 25-30 μl in a buffer containing 50 mM Tris, pH 8.0, 2 mM DTT, 5 mM MgCl2, 2 mM adenosine 5′-[-thio]triphosphate (ATP S), 50 μg/ml ubiquitin aldehyde, 20 μg/ml MG132 and protease inhibitor cocktail (Sigma P8340) at 37° C. for 30 minutes. Reactions were stopped by adding sample buffer and were subjected to 12% SDS PAGE. The gels were then dried and autoradiographed.
C2C12 cells were differentiated for 5 days to allow formation of myotubes. The differentiated myotubes were treated with 2 ng/ml of IL-6 for 5, 24 or 48 hours. […]

Row | Molecule | effect on accelerated muscle protein ubiquitination of tumor-bearing rats (E3α) | expression of muE3αII mRNA (muE3αII) | 125I-ubiquitin conjugation of cellular proteins ([1]; TNFα 0, 3, 6, 10, 20 ng/ml for one hour) | ubiquination of cellular proteins ([1]; 2 ng/ml IL-6 for 5, 24 or 48 hours, detectable 5 hours post-treatment, time dependent)
1 | COC(=O)[C@@H](N)CCCNC(=N)N [arginine methylester, arginine methyl ester] | virtually abolished the accelerated ubiquitination activity; also recorded: virtually abolished all the increased ubiquitination activities |  |  | 
2 | TNFα |  | markedly increased | dose dependent increase | 
3 | IL-6: proinflammatory cytokine (R&D Systems cat no. 206-IL) |  | markedly increased |  | marked increase
